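Compound exposure: 48 hours, 5 concentrations, 96-well plates. GI50 is the concentration that inhibits growth by half. TGI: total growth inhibition.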
Tested on: SN12K1 renal
Assay: inhibition of tumour cell growth, NCI panel, 48 h

COc1cccc2c1C(=O)c1c(O)c3c(c(O)c1C2=O)C[C@@](O)(C(C)=O)C[C@@H]3OC1CC(O)C(O)C(C)O1 (some centres not stated)
GI50: 333 nM | TGI: 4.96 µM
